Columns and labels:
[1] = tested on: MRGPRD+ neurons (hM3DREADD); assay: Conditioned place aversion (CPA) assay with CNO; assay type: in vivo, mouse; settings: CNO and DREADD, separate experiments, data not shown
Excerpt: Because our hypothesis is based on the social reward mediated by social contact in juvenile mice, the mice used were approximately 1-month old. After weaning the mice were maintained in social groups and left undisturbed until the start of the CPP assay. The paradigm was completed in 6 days. On the day before pre-testing the mice were socially isolated in their home cage. On day 1 of the procedure each mouse was placed in the central compartment and allowed to explore the entire apparatus freely for 30 min (pre-test). After the pre-test the initial preference of each mouse for a given side compartment was recorded. […] Conditioning was initiated on day 2 and encompassed four sessions performed on four consecutive days. In the first conditioning session mice were injected i.p. with CNO (5 mg kg) (or saline of an equivalent volume for some control mice) and placed for 1 h (based on the observation that CNO effects peak between 45 and 50 min after administration) in the initially non-preferred (I.N.P.) compartment. On day 3, during the second conditioning session, all mice were injected with saline and confined for 1 hr in the opposite (that is, initially preferred, I.P.) compartment. (The second conditioning session was performed the following day as CNO effects last for 9 hrs.) On day 4 and day 5 the first and second conditioning sessions were repeated, respectively. […]

MRGPRB4+ fibres = assay: Two-photon in vivo calcium imaging (GCaMP3.0) of central afferent fibres through a spinal cord laminectomy, chemical stimuli; set-up: species or system mouse; settings: CNO, mice injected only with GCaMP3.0 viruses (no hM3DREADD)
Description: Mice expressing reporters and/or Cre recombinase targeted to the MrgprB4 locus were generated by homologous recombination in embryonic stem cells, according to standard procedures. Heterozygous neonates from MrgprD-Cre and MrgprB4-Cre mice were injected intraperitoneally with Cre-dependent AAV8 viruses expressing GCaMP3.0 or mGCaMP3.0 or hM3(Gq-coupled) DREADD, and imaged as adults (≧8 weeks old).
Electrophysiology experiments on ex vivo skin-nerve preparations from adult heterozygous Mrgprb4-EGFPf reporter mice were performed as described in Woodbury, et al. J. Comp. Neurol. 436, 304-323 (2001). For calcium imaging, after a dorsal laminectomy the spinal column was stabilized and filled with imaging solution (see below for details). Imaging was performed using a two-photon laser-scanning microscope (Ultima, Prairie Inc.) using an Olympus 40×0.8 N.A. water immersion objective, at 128×128 pixel resolution with an acquisition rate of 8-12 frames per second. Mechanical stimuli were delivered using a custom-modified No. 5 sable paint brush or serrated forceps, in a manner electronically time-stamped to image acquisition, as may be seen in FIGS. 18A-18C and further discussed below. Stimuli were delivered to each mouse in a series of trials, separated by a few minutes; each trial consisted of one or more stimuli delivered typically at intervals of several seconds. Chemical stimuli were delivered to the spinal cord using a Pipetman pipette and to the periphery using a syringe pump. Calcium responses were analysed using custom software written in Matlab (see below for more details). For calculating ΔF/F [(Fav−F0)/F0], F0 is the average of the first ten frames of the recording period.
Mice 2 months or older were sedated by i.p. injection of a mix of ketamine (100 mg/kg), xylazine (15 mg/kg), acepromazine (2.5 mg/kg in 0.9% NaCl). During surgery, body temperature was maintained at 37° C. with a heating blanket.
A dorsal laminectomy was performed mostly at spinal level L2-L4 (but occasionally at L1-L3) as described in Johannssen, et al. J. Physiol. (Lond.) 588:3397-3402 (2010), but without removing the dura. The spinal column was stabilized using Narishige STS-A spinal clamps. In addition a head-holding adaptor from Kopf (923-B Mouse Gas Anaesthesia Head Holder) was used that has installed an anaesthesia/gas mask for positioning the mouse head. In this apparatus the gas is applied through a standard hose barb positioned above the nose on the mask. The inlet fills a large gas chamber around the snout, a second hose barb below the mask is provided for vacuuming off excess, expelled gasses. The animals were maintained under continuous anaesthesia for the duration of the imaging experiments with 1-2% isofluorane or with hourly injections of the above ketamine mix. A well was built around the exposed spinal cord using Gelseal (Amersham Biosciences Corp) and Kwik Sil Adhesive (WPI). Warm imaging solution (in mM: 130 NaCl, 3 KCl, 2.5 CaCl2, 0.6 6H2O.MgCl2, 10 HEPES without Na, 1.2 NaHCO3, 10 glucose, pH7.45 with NaOH) (37° C.) was repeatedly applied to prevent drying and maintain tissue integrity, and to allow the use of immersion objectives. During imaging the body temperature of the animals was maintained at 37° C. with a heating blanket and an air-therm heater (WPI) placed inside the microscope area.
Imaging experiments were performed under a two-photon laser-scanning microscope (Ultima, Prairie Instruments Inc.). Live images were acquired at 8-12 frames per second, at depths below the pia ranging from 100 to 250 μm, using an Olympus 40×0.8 N.A. water immersion objective, at 128×128 pixel resolution with a laser tuned to 940 nm wavelength, and emission filters 525/50 nm and 595/50 nm for green and red fluorescence, respectively. Laser power was adjusted to be 20-25 mW at the focal plane (maximally 35 mW), depending on the imaging depth and level of expression of GCaMP3.0. […]

C[N+]1([O-])CCN(C2=Nc3cc(Cl)ccc3Nc3ccccc32)CC1 [CNO, Clozapine-N-oxide]
conditioned place aversion (CPA) [1]: nor (in separate experiments) conditioned place aversion | calcium transients after application to the spinal cord (MRGPRB4+ fibres): no CNO responses

— patent US20140178305A1, “IDENTIFICATION AND USE OF ANXIOLYTIC COMPOUNDS” (CALIFORNIA INSTITUTE OF TECHNOLOGY, priority 2012, published 2014)
